The results in this text go back to article PMC4193777 (PLoS ONE, 2014).

SMILES strings stand for the structures. Where a SMILES comes first, the peptide text is derived from it. The star is where a group is joined. Palmitoyl = CCCCCCCCCCCCCCCC(=O)*

The test system of assay [1] is P2Y2R. Put plainly: Direct NADPH-oxidase activation in naive neutrophils by P2Y2R agonists. It is filed as cell-based, human. As for the experimental part: (§1) Human peripheral blood neutrophils were isolated from buffy coats from healthy blood donors using dextran sedimentation and Ficoll-Paque gradient centrifugation as described. The remaining erythrocytes were disrupted by hypotonic lysis, the neutrophils were washed twice, resuspended in KRG, and stored on melting ice until use. This isolation procedure permits cells to be purified with minimal granule mobilization.
The NADPH-oxidase activity was determined using isoluminol-enhanced chemiluminescence (CL), [27]. The CL activity was measured in a six-channel Biolumat LB 9505 (Berthold Co., Wildbad, Germany), using disposable 4-ml polypropylene tubes with a 900 µl reaction mixture containing 10^5 cells, isoluminol (2×10^−5 M) and HRP (2 U). The tubes were equilibrated in the Biolumat for 5 min at 37°C, after which the stimulus (100 µl) was added and the light emission was recorded continuously. Receptor desensitized cells were defined as naïve (non-desensitized) cells that had first been stimulated with a receptor specific agonist and returned to baseline after the resulting release of superoxide before a second stimulation. When reactivation experiments were performed with antagonists, the antagonists were added to the CL reaction mixture 1 min before the second stimulation. […]

In assay [2] the test system is desensitized FPR2. Put plainly: ATP/ATPγS-induced cross-talk reactivation of desensitized FPR2 (superoxide). It is filed as cell-based, human. The note with it: desensitized by WKYMVM (40 nM) or F2Pal10 (500 nM); ATPγS 50 µM. As for the experimental part: as §1
The NADPH-oxidase activity was determined using isoluminol-enhanced chemiluminescence (CL), [27]. The CL activity was measured in a six-channel Biolumat LB 9505 (Berthold Co., Wildbad, Germany), using disposable 4-ml polypropylene tubes with a 900 µl reaction mixture containing 10^5 cells, isoluminol (2×10^−5 M) and HRP (2 U). The tubes were equilibrated in the Biolumat for 5 min at 37°C, after which the stimulus (100 µl) was added and the light emission was recorded continuously. […]
Figure 3 PAF- or ATP-stimulation induces reactivation of desensitized FPR2. […] The FPR2 specific inhibitor PBP10 (1 µM) was added 1 min prior to PAF stimulation (dashed line) and the release of superoxide anions was recorded continuously. […] The release of superoxide anions was recorded continuously. […]

The target in assay [3] is T1, FPR2 (Homo sapiens, UniProt P25090).
T1 construct: Human peripheral blood neutrophils were isolated from buffy coats from healthy blood donors; endogenous in cells; host or cells: primary human peripheral blood neutrophils from buffy coats of healthy donors
T1 sequence (P25090 1-351): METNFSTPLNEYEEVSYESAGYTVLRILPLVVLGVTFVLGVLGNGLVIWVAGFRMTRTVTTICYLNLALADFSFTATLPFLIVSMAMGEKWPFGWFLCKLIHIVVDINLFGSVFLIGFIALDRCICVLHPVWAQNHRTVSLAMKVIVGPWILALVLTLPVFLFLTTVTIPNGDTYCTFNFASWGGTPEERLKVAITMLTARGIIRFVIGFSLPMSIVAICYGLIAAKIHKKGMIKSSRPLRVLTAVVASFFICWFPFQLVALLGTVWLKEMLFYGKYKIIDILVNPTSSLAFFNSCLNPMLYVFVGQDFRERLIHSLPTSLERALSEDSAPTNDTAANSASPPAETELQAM
Briefly: Neutrophil NADPH-oxidase activity (superoxide release), direct activation of naive cells. The format is cell-based. The following applies: read-out: maximum response relative to WKYMVM, superoxide peak, naive human neutrophils; % of response induced by WKYMVM. Here is the method: as §1
(§2) The NADPH-oxidase activity was determined using isoluminol-enhanced chemiluminescence (CL), [27]. The CL activity was measured in a six-channel Biolumat LB 9505 (Berthold Co., Wildbad, Germany), using disposable 4-ml polypropylene tubes with a 900 µl reaction mixture containing 10^5 cells, isoluminol (2×10^−5 M) and HRP (2 U). The tubes were equilibrated in the Biolumat for 5 min at 37°C, after which the stimulus (100 µl) was added and the light emission was recorded continuously. Receptor desensitized cells were defined as naïve (non-desensitized) cells that had first been stimulated with a receptor specific agonist and returned to baseline after the resulting release of superoxide before a second stimulation. When reactivation experiments were performed with antagonists, the antagonists were added to the CL reaction mixture 1 min before the second stimulation. For studies with signaling inhibitors, cells were incubated with inhibitors at 37°C for 15 min before agonist addition. Control cells received no treatment but were incubated under the same conditions.
Data analysis was performed using GraphPad Prism 6.0 (Graphpad Software, San Diego, CA, USA).
Representative experiments out of more than five are shown and an arrow indicates the time point for agonist addition. Abscissa: Time of study (min); ordinate: Superoxide production (Mcpm).

Assay [4] deals with neutrophils. Briefly: Inhibition of FPR2 agonist-induced superoxide by pertussis toxin or kinase inhibitors. The format is cell-based, human. The note with it: for inhibition of F2Pal10- and WKYMVM-induced superoxide by kinase inhibitor: inhibitors 20 nM to 1 µM (1 µM shown), 15 min at 37°C, WKYMVM 50 nM, F2Pal10 500 nM, n = 3. Here is the method: as §1, §2
A. Primary human neutrophils were treated with pertussis toxin (PTX, 500 ng/ml final concentration) and samples were withdrawn at indicated time points. […] As a control, the PMA response (5×10^−8 M final concentration) from control cells (120 min incubation without PTX, solid line in the inset) or treated with PTX for 120 min (dashed line in the inset) is shown. Superoxide production (peak values) from pertussis toxin treated neutrophils was compared to that from non-treated control cells. A representative experiment out of more than five is shown. B and C. Fluo-3-AM/FuraRED labeled neutrophils were incubated without any additive (solid lines) or with EGTA (2 mM; dotted lines). […] Traces of representative calcium responses are shown and at least three experiments have been performed. Abscissa, time of study (sec); ordinate, fluorescence (arbitrary unit). D. Primary human neutrophils were incubated with different pharmacological kinase inhibitors (1 µM final concentration) for 15 min at 37°C. Control cells were incubated at the same condition but received no inhibitors. […] Data are presented as % inhibition compared to the control response (peak values of superoxide production were used, mean±SEM, n = 3).
The effects of these inhibitors were determined using different concentrations ranging from 20 nM to 1 µM.

For assay [5], the system named is desensitized FPR2. Put plainly: PAF-induced cross-talk reactivation of desensitized FPR2 (superoxide). The format is cell-based, human. The note with it: PAF 100 nM; inhibitor before PAF; calyculin A 60 nM 10 min at 37°C; PBP10 1 µM; WEB2086 data not shown. Here is the method:
as §1, §2
Figure 3 PAF- or ATP-stimulation induces reactivation of desensitized FPR2. […] A representative experiment is shown and the time point for addition of FPR2 agonists is indicated by the first arrow, the time point for PAF stimulation (100 nM final concentration) with the second arrow. The control PAF response induced in naïve (non-desensitized) neutrophils is shown for comparison (dotted line). Abscissa: Time of study (min); ordinate: Superoxide production (Mcpm). B. Naïve neutrophils were first desensitized with F2Pal10 (F2Pal10des., 500 nM final concentration) and subsequently stimulated with PAF (100 nM final concentration; time point for PAF addition is indicated by an arrow). The FPR2 specific inhibitor PBP10 (1 µM) was added 1 min prior to PAF stimulation (dashed line) and the release of superoxide anions was recorded continuously. The PAF responses induced in naïve cells (solid line), as well as in F2Pal10-desensitized cells receiving no PBP10 (dotted line), are shown for comparison. Abscissa: Time of study (min); ordinate: Superoxide production (Mcpm). C. Effect of calyculin A on receptor cross-talk induced FPR2 reactivation. Cells desensitized with F2Pal10 (F2Pal10des.) were incubated with the phosphatase inhibitor calyculin A (60 nM; solid line) or buffer as control (dashed line) for 10 min at 37°C prior to PAF stimulation (100 nM). The release of superoxide anions was recorded continuously. Abscissa: Time of study (min); ordinate: Superoxide production (Mcpm). […] Abscissa: Time of study (min); ordinate: Superoxide production (Mcpm). […] The results are given as peak values of superoxide production following addition of ATPγS (mean+SEM; n = 3).
Figure 4 More pronounced reactivation was induced by PAF in neutrophils desensitized by the pepducin F2Pal10. […] The results are given as peak values of superoxide production from three separate experiments for the first stimulation with FPR2 agonists (mean+SEM, n = 3). […]

On to `Nc1ncnc2c1ncn2[C@@H]1O[C@H](COP(=O)(O)OP(=O)(O)OP(=O)(O)O)[C@@H](O)[C@H]1O` [ATP], for which the “direct activation of NADPH-oxidase in naive neutrophils” value in assay [1] is “can not directly activate the NADPH-oxidase in naïve neutrophils”. The “superoxide release in FPR2-desensitized cells by P2Y2R agonist” value in assay [2] was “induced a release of superoxide anions in FPR2 desensitized cells”.

On to `Nc1ncnc2c1ncn2[C@@H]1O[C@H](CO[P@](=O)(O)O[P@](=O)(O)O[P@@](=O)(O)S)[C@@H](O)[C@H]1O` [ATPγS], for which, in assay [1], the “direct activation of NADPH-oxidase in naive neutrophils” value is “can not directly activate the NADPH-oxidase in naïve neutrophils”. For the same compound, the “superoxide release in FPR2-desensitized cells by P2Y2R agonist” value in assay [2] is “induced a release of superoxide anions in FPR2 desensitized cells”.

As for `CCCCCCCCCCCCCCCC(=O)N[C@@H](CCCCN)C(=O)N[C@H](C(=O)N[C@@H](Cc1c[nH]cn1)C(=O)N[C@@H](CCCCN)C(=O)N[C@@H](CCCCN)C(=O)NCC(=O)N[C@@H](CCSC)C(=O)N[C@H](C(=O)N[C@@H](CCCCN)C(=O)N[C@@H](CO)C(=O)O)[C@@H](C)CC)[C@@H](C)CC` [F2Pal10] (Palmitoyl-KIHKKGMIKS-OH), in assay [3], the Emax was found to be 70%.

For the compound `O=c1c(-c2ccc(O)cc2)coc2cc(O)cc(O)c12` [Genistein], the “inhibition of F2Pal10- and WKYMVM-induced superoxide by kinase inhibitor” value (“inhibition … by kinase inhibitor” below) in assay [4] is “Very similar degrees of inhibition”.

For `CCCCCCCCCCCCCC(=O)O[C@@H]1[C@@H](C)[C@@]2(O)[C@@H](C=C(CO)C[C@]3(O)C(=O)C(C)=C[C@@H]23)[C@@H]2C(C)(C)[C@]12OC(C)=O` [PMA], in assay [4] (PMA 5×10^−8 M, PTX 120 min), the “PMA responsiveness of pertussis toxin treated cells” value is on record as “retained their responsiveness to PMA”.

With `CC(C)(C)n1nc(-c2ccc(Cl)cc2)c2c(N)ncnc21` [PP2], in assay [4], the “inhibition … by kinase inhibitor” value is listed as “Very similar degrees of inhibition”.

For `C[S+]([O-])c1ccc(-c2nc(-c3ccncc3)c(-c3ccc(F)cc3)[nH]2)cc1` (stereo not shown) [SB203580], the “inhibition … by kinase inhibitor” value in assay [4] is “Very similar degrees of inhibition”.

In the case of `Cc1nnc2n1-c1sc(CCC(=O)N3CCOCC3)cc1C(c1ccccc1Cl)=NC2` [WEB2086], the “inhibition of PAF response in FPR2-desensitized neutrophils” value in assay [5] is “inhibited”.
